Experimental data reported in paper PMC10059848, “Inhibition Kinetics and Theoretical Studies on Zanthoxylum chalybeum Engl. Dual Inhibitors of α-Glucosidase and α-Amylase” (Journal of Xenobiotics, 2023).

Columns and labels:
[1] = target: yeast α-glucosidase (Saccharomyces cerevisiae, UniProt P53341); assay: Inhibition kinetics of α-glucosidase (Lineweaver–Burk and Dixon plots); type: biochemical; details: for Inhibition Mode, α-Glucosidase: Lineweaver–Burk plots
[2] = target: T1, porcine pancreas α-amylase (Sus scrofa, UniProt P00690); assay: Inhibition kinetics of α-amylase (Lineweaver–Burk and Dixon plots); details: for Inhibition Mode, α-Amylase: Lineweaver–Burk plots
T1 sequence (P00690 16-511): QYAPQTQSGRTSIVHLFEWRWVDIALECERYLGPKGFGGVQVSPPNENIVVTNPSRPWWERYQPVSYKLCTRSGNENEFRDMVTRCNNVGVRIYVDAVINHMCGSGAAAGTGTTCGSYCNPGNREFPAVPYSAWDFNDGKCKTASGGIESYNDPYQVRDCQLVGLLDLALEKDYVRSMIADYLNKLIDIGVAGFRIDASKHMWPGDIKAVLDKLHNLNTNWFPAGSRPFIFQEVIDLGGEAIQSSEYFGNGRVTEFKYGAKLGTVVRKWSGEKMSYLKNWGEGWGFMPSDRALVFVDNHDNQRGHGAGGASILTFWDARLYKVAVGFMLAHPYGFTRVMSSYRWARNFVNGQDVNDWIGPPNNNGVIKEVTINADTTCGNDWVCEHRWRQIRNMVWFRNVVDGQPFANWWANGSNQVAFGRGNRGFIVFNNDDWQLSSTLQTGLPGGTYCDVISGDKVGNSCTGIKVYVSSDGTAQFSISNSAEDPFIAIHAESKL
From the text: Using Lineweaver–Burk plots, the mode of inhibition was established, followed by secondary plots (Dixon plots) depending on the established mode of inhibition. The following equation was used to obtain the inhibition constants (Ki) [15]: v=Vmax ×S/Km(1+[I]/Ki)+S(1+[I]/αKi) where S and I are the concentrations of the substrate and inhibitor, respectively; Vmax is the maximum velocity; Km is the Michaelis–Menten constant; Ki is the competitive inhibition constant; and αKi is the uncompetitive inhibition constant.
Lineweaver–Burk plots on monoreplicate tests were performed followed by Dixon secondary plots to determine the inhibition constants. The means of the observed triplicate inhibition constants were subjected to analysis of variance with Tukey HSD/Tukey Kramer post-analysis to compare means. The least significant difference was considered at p < 0.05 and the coefficient of determination (R^2) was obtained as the average of the regression curves from Dixon plots of individual experiments.

[3] = target: α-glycosidase; parameters: method as in PMID 32889048; details: read-out: IC50 against α-glycosidase; cited from earlier work
[4] = Lineweaver-Burk plot, competitive inhibition

Sequence of yeast α-glucosidase (P53341 whole entry): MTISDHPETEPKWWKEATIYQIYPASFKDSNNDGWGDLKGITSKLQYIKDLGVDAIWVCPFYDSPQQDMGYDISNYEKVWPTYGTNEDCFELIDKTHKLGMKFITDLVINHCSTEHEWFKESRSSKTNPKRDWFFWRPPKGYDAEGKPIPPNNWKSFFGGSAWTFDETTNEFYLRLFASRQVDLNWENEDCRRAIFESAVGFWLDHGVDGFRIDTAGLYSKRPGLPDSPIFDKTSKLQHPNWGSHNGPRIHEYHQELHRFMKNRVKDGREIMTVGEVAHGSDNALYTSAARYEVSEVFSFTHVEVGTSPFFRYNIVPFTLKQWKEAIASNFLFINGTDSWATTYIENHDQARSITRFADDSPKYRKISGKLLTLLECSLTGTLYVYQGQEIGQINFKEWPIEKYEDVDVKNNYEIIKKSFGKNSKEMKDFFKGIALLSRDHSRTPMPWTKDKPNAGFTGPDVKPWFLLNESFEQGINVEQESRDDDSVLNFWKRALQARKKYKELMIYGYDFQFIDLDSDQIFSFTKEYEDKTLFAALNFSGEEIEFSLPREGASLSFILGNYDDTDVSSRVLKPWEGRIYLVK

Compound	Inhibition Mode, α-Glucosidase [1]	Inhibition Mode, α-Amylase [2]	1/Vmax, α-glucosidase [1, 4]	1/Vmax, α-amylase [2, 4]	IC50 [3]
COc1ccc2c(cnc3c4cc5c(cc4ccc23)OCO5)c1OC [Compound 6, norchelerythrine]	Mixed	Mixed	–	–	–
6-hydroxy-N-methyldecarine [Compound 8]	Mixed	Mixed	–	–	–
CC(C)(O)CNC(=O)/C=C/c1ccccc1 [Compound 2, chalybemide B]	Uncompetitive	Non-competitive	–	–	–
CC(C)CNC(=O)/C=C/c1ccc2c(c1)OCO2 [Compound 4, fagaramide]	Non-competitive	Non-competitive	–	–	–
OCC1OC1c1ccc2c(c1)OCO2 (stereo not shown) [Compound 10, 2,3-epoxy-6,7-methylenedioxyconiferol]	Competitive	Competitive	20.25 s⁻¹	24.47 s⁻¹	–
C[C@H]1O[C@H](O[C@H]2[C@H](O)[C@@H](O)[C@@H](O[C@H]3[C@H](O)[C@@H](O)C(O)O[C@@H]3CO)O[C@@H]2CO)[C@H](O)[C@@H](O)[C@@H]1N[C@H]1C=C(CO)[C@@H](O)[C@H](O)[C@H]1O (stereo partly shown) [Acarbose, acarbose, reference compound]	Competitive	Competitive	–	–	44.9 µM
COc1ccc2c(OC)c3ccoc3nc2c1OC [Compound 5, skimmianine]	Mixed	Mixed	–	–	–
c1cc2c(cc1C1OCC3C(c4ccc5c(c4)OCO5)OCC13)OCO2 (stereo not shown) [Compound 11, sesamine]	non-competitive	Non-competitive	–	–	–
CC(C)CNC(=O)/C=C/C/C=C/c1ccc2c(c1)OCO2 [Compound 1, Chalybemide A]	Non-competitive	Non-competitive	–	–	–
COc1cc(-c2cc3cc(/C=C/CO)cc(OC)c3o2)ccc1O [Compound 9, ailanthoidol]	Uncompetitive	Uncompetitive	–	–	–
COc1ccc(CN(C)C(=O)c2ccccc2OC)cc1 [Compound 3, chalybemide C]	Non-competitive	Non-competitive	–	–	–
